{"source": "patent US11566260B2", "about": "“Potentiating agents for protecting plants from fungal infections” (UNIVERSITE D'ANGERS, priority 2012, dated 2023)", "assay_type_in_all_cases": "cell-based", "key": {"Alternaria brassicicola [1]": {"system": "Alternaria brassicicola", "experiment": "Test B: potentiating effect with a plant defense molecule on growth of Alternaria brassicicola", "details": "Alternaria brassicicola", "protocol": "Test B: • 1) Determining a non-fungicidal amount of said agent, preferably according to Test A; • 2) Determining a non-fungicidal amount of a plant defense molecule, preferably according to Test A; • 3) Measuring growth of fungal conidia in a medium comprising a combination of a non-fungicidal amount of the agent, as determined in step 1, and a non-fungicidal amount of the plant defense molecule, as determined in step 2. In one embodiment, the growth is measured as follows: Suspensions of fungal conidia (starting material: 10^5 conidia/mL) are cultured in liquid medium, such as, for example, 300 μL of PBD medium, on microplate wells at 25° C. with shaking at 175 rpm for 5 minutes every 10 minutes. Non-fungicidal concentrations of the tested agent and of the tested plant defense molecule are added on wells, and fungal growth is measured during at least 5 hours, preferably at least 10, 20, 30 hours. Methods for measuring fungal growth are well known from the skilled artisan. Examples of such methods include, but are not limited to, photometry, such as, for example, spectrophotometric methods; or nephelometry, such as, for example, laser nephelometry as described in Joubert et al (Biotechniques, 2010, 48:399-404). Growth inhibition is measured by comparing the Area Under Curves (AUC) of treated samples and of untreated controls.\nThe potentiating effect of chelerythrin is measured in a suspension of conidia treated with a plant defense molecule, camalexin, which is present at a non-fungicidal amount as determined hereinabove. Said non-fungicidal amount is consistent with the amount of camalexin produced by an infected plant organ.\nAlternaria brassicicola growth was measured as described hereinabove.\nA non-fungicidal amount of chelerythrin (as determined in Example 1a) and/or a non-fungicidal amount of camalexin (as determined in Example 1b) or 10 μL of DMSO are added per well, and growth curves were drawn (FIG. 3).\nIn the Table 5 below are shown compounds (column 1) having a potentiating effect of a plant defense molecule (column 2) for the inhibition of a pathogenic fungus (column 3). The type of the potentiating agent in this particular situation is given in column 4 (homologous or heterologous). Triads were identified according to Test B."}, "Alternaria dauci": {"system": "Alternaria dauci", "experiment": "Growth inhibition of Alternaria dauci (protocol of Example 1), non-fungicidal amount", "protocol": "Suspensions of fungal conidia (starting material being for example 10^5 conidia/mL) are cultured in liquid medium, such as, for example, 300 μL of PBD medium, on microplate wells at 25° C. with shaking at 175 rpm for 5 minutes every 10 minutes. Increasing concentrations of the tested product are added on wells, and fungal growth is measured, during at least 5 hours, preferably at least 10, 20, 30 hours. Methods for measuring fungal growth are well known from the skilled artisan. […] Growth inhibition is measured by comparing the Area Under Curves (AUC) of treated samples and of untreated controls. […]\n(§1) For inoculum preparation, conidia were collected from 8-days-old solid cultures by adding PD broth followed by gentle scraping of the agar plates. They were counted in a Thoma's chamber and the conidial suspensions were diluted to the concentration of 10^5 conidia/mL.\nGrowth was automatically recorded for at least 30 hours at 25° C. using a nephelometric reader (NEPHELOstar Galaxy, BMG Labtech, Germany) equipped with a 635-nm laser as radiation source. […] Each well was measured for 0.1 second with a laser beam of 2.5 mm.\nThe non-fungicidal amount of the sanguinarine contained in M. cordata extract against A. dauci strain was determined as 12 μM or 4 ppm according to the protocol described in Example 1. […]"}, "Alternaria brassicicola [2]": {"system": "Alternaria brassicicola", "experiment": "Test A: growth of Alternaria brassicicola conidia followed by nephelometry, to find the non-fungicidal amount", "protocol": "Suspensions of fungal conidia (starting material being for example 10^5 conidia/mL) are cultured in liquid medium, such as, for example, 300 μL of PBD medium, on microplate wells at 25° C. with shaking at 175 rpm for 5 minutes every 10 minutes. Increasing concentrations of the tested product are added on wells, and fungal growth is measured, during at least 5 hours, preferably at least 10, 20, 30 hours. Methods for measuring fungal growth are well known from the skilled artisan. Examples of such methods include, but are not limited to, photometry, such as, for example, spectrophotometric methods; or nephelometry, such as, for example, laser nephelometry as described in Joubert et al (Biotechniques, 2010, 48:399-404). Growth inhibition is measured by comparing the Area Under Curves (AUC) of treated samples and of untreated controls. Test A is carried out in Example 1.\nAlternaria brassicicola strains were cultivated at 24° C. on potato dextrose (PD) medium (Cat. No. 213200; Becton Dickinson, USA).\nas §1\nGrowth was automatically recorded for at least 30 hours at 25° C. using a nephelometric reader (NEPHELOstar Galaxy, BMG Labtech, Germany) equipped with a 635-nm laser as radiation source. During incubation, the 96-well plates were subjected to shaking at 175 rpm for 5 minutes every 10 minutes. Measurements were done every hour with a gain value of 90 and a percentage of the maximum value of 20%. Each well was measured for 0.1 second with a laser beam of 2.5 mm.\nChelerythrin (25 μM or 50 μM, test wells) or 10 μL of DMSO (chelerythrin solvent, control wells) were added on wells, and growth curves were drawn (FIG. 1).\nCamalexin (10, 20, 40 or 60 μM, test wells) or 10 μL of DMSO (chelerythrin solvent, control wells) were added on wells, and growth curves were drawn (FIG. 2)."}, "[3]": {"details": "plant defense molecule Resveratrol"}, "[4]": {"details": "plant defense molecule Brassinin"}}}
{"compound": "CCOc1cc2c(OCC)cc3c4cc(OC)c(OC)cc4cnc3c2cc1OC", "note": "[Compound 3]", "values": [{"measurement": "Type of potentiating agent (compound having a potentiating effect of the plant defense molecule)", "setting": "Alternaria brassicicola [1]; [3]", "value": "Heterologous"}]}
{"compound": "c1c2c(cc3c1OCO3)-c1cc3ccc4c(c3c[n+]1CC2)OCO4", "note": "[Coptisin]", "values": [{"measurement": "Type of potentiating agent (compound having a potentiating effect of the plant defense molecule)", "setting": "Alternaria brassicicola [1]; [4]", "value": "Homologous"}, {"measurement": "Type of potentiating agent (compound having a potentiating effect of the plant defense molecule)", "setting": "Alternaria brassicicola [1]; plant defense molecule Camalexin", "value": "Homologous"}]}
{"compound": "COc1cc(O)c2c(c1)C[C@@H](C)OC2=O", "note": "[6-methoxymellein]", "values": [{"measurement": "growth inhibition of Alternaria dauci", "setting": "Alternaria dauci; 6-methoxymellein 100 μM", "value": "did not inhibit"}, {"measurement": "growth inhibition of Alternaria dauci", "setting": "Alternaria dauci; 6-methoxymellein 125 μM", "value": "did not inhibit"}]}
{"compound": "COc1cc2c[n+](C)c3c4cc(OC)c(OC)cc4c(OCc4ccccc4)cc3c2cc1OC", "note": "[Compound 4]", "values": [{"measurement": "Type of potentiating agent (compound having a potentiating effect of the plant defense molecule)", "setting": "Alternaria brassicicola [1]; [4]", "value": "Homologous"}, {"measurement": "Type of potentiating agent (compound having a potentiating effect of the plant defense molecule)", "setting": "Alternaria brassicicola [1]; [3]", "value": "Heterologous"}]}
{"compound": "c1ccc2c(-c3nccs3)c[nH]c2c1", "note": "[camalexin, reference compound]", "values": [{"measurement": "inhibition of Alternaria brassicicola growth", "setting": "Alternaria brassicicola [2]; 10 μM camalexin", "value": "≤ 20", "unit": "%"}, {"measurement": "inhibition of Alternaria brassicicola growth", "setting": "Alternaria brassicicola [2]; 20 μM camalexin", "value": "≤ 20", "unit": "%"}]}
